SMILES strings stand for the structures.

The source of these data is patent US8148577B2, “Polyamines useful as anti-parasitic and anti-cancer therapeutics and as lysine-specific demethylase inhibitors” (The Johns Hopkins University, priority 2005, dated 2012).

For one assay, the system named is A549 cells. As to the kind of experiment: 96 hr MTS dose response experiments in A549 cells. The class given is cell-based. To be noted: Homo sapiens, 96 hr exposure. The method, then:
(§1) MTS dose response experiments in H157, H82, and A549 cells following a 96 hr exposure with select compounds were performed. MTS is a standard colorimetric assay used for measuring metabolic activity in cells. MTS experiments were performed by CellTiter 96® AQueuos One Solution Cell Proliferation Assay from Promega Corporation. Briefly, the cells were seeded at 3000 cells/well on a 96 well tissue culture plate containing 100 ul of medium/well and allowed to attach overnight. The medium was then aspirated and replaced with 100 ul of fresh medium containing the appropriate concentration of the compound being tested and incubated for 96 hrs at 37° C. and 5% CO2. Compounds are routinely tested at concentrations ranging from 0.1 micromolar to 50 micromolar. Wells not containing the test compound were present and used as a control. Following treatment, 20 ul of MTS reagent was added to each well and incubated at 37° C. for 1.5 hrs. The absorbance of each well was then measured at 490 nm and used to determine the metabolic activity of the cells in the presence of the test compound, relative to the control. IC50 values for the test compounds were extracted based on the results.
Note that the results for a 72 hr exposure in addition to the 96 hr exposure are shown for compound 49-TDW-29C in the H157 cells. […]

Assay [1] relates to H157 (non-small cell lung carcinoma) cells. As to the kind of experiment: 96 hr MTS dose response experiment in H157 cells. Type of assay: cell-based, human. To be noted: a range means IC50 lies between the two tested concentrations. The method, then:
as §1
(§2) Note that the results for a 72 hr exposure in addition to the 96 hr exposure are shown for compound 49-TDW-29C in the H157 cells. […] FIG. 1 depicts the results of a 96 hr MTS dose response experiments for compound 46-TDW-23c in H157, A549, H82 and Beas2B cells. FIG. 2 depicts the results of a 96 hr MTS dose response experiments for compound 49-TDW-9 in H157, A549, H82 and Beas2B cells. FIG. 3 depicts the results of a 96 hr MTS dose response experiments for compound 42-TDW-21c in H157, A549, H82 and Beas2B cells. FIG. 4 depicts the results of a 96 hr MTS dose response experiments for compound 46-TDW-19c in H157, A549, H82 and Beas2B cells. FIG. 5 depicts the results of a 96 hr MTS dose response experiments for compound 49-TDW-17c in H157, A549, H82 and Beas2B cells. FIG. 6 depicts the results of a 96 hr MTS dose response experiments for compound 40-TDW-37 in H157, A549, H82 and Beas2B cells. FIG. 7 depicts the results of a 96 hr MTS dose response experiments for compound 42-TDW-4 in H157, A549, H82 and Beas2B cells. FIG. 8 depicts the results of a 96 hr MTS dose response experiments for compound 49-TDW-29c in H157, A549, H82 and Beas2B cells. FIG. 9 depicts the results of a 96 hr MTS dose response experiments for compound 49-TDW-32c in H157, A549, H82 and Beas2B cells. FIG. 10 depicts the results of a 96 hr MTS dose response experiments for compound 46-TDW-35c in H157, A549, H82 and Beas2B cells. FIG. 11 depicts the results of a 96 hr MTS dose response experiments for compound 39-TDW-3 in H157, A549, and H82 cells. FIG. 12 depicts the results of a 96 hr MTS dose response experiments for compound 39-TDW-12c in […], and A549 cells. FIG. 13 depicts the results of a 96 hr MTS dose response experiments for compound 39-TDW-20c in H157, and H82 cells. FIG. 14 depicts the results of a 96 hr MTS dose response experiments for compounds 39-TDw-47c and 39-TDW-43 in H157 cells. FIG. 15 depicts the results of a 96 hr MTS dose response experiments for compounds 42-TDW-9, 42-TDW-4c/6, 40-TDW-35, 42-TDW-38 and BENSpm in H157 cells. FIG. 16 depicts the results of a 96 hr MTS dose response experiments for compounds 46-TDW-34c, 42-TDW-12, 40-TDW-48, 46-TDW-44c and BENSpm in H157 cells. FIG. 17 depicts the results of a 96 hr MTS dose response experiments for compounds 42-TDW-20c, 46-TDW-22, 46-TDW-39, 49-TDW-29c and BENSpm in H157 cells. FIG. 18 depicts the results of a 96 hr MTS dose response experiments for compounds 39-TDW-43, 42-TDW-48c, 46-TDW-9, 46-TDW-23c and BENSpm in H157 cells. FIG. 19 depicts the results of a 96 hr MTS dose response experiments for compounds 42-TDW-35c, 46-TDW-44 and BENSpm in H157 cells.

Assay [2] has as its system H82 (small lung cell carcinoma) cells. Briefly: 96 hr MTS dose response experiments in H82 cells. Type of assay: cell-based, human. As to the method:
as §1, §2

Assay [3] deals with H157 (non-small cell lung carcinoma) cells. Briefly: Polyamine levels in H157 cells following treatment. The class given is cell-based, human. The method, then:
(§3) Putrescine, spermidine, and spermine polyamine levels in H157 and H82 cells following exposure to select compounds were performed. Polyamine levels were determined using the precolumn dansylation labeling, reverse-phase high-pressure liquid chromatography method as described by Kabra et al., J. Chromotography, 380:19 (1986). The results are show in Tables 6 and 11 for H157 and H82 cells respectively. The compound identifier, treatment concentration, observed polyamine level, and exposure time are listed in columns 1, 2, 3, and 4 respectively. Polyamine levels are reported as increased (inc), decrease (dec), or no change (N/C). In some case the specific levels of putrescine, spermidine, and/or spermine are listed.

Another assay deals with H82 cells. As to the kind of experiment: Polyamine levels in H82 cells following treatment. The class given is cell-based, human. The note with it: 24 hr. The method, then: as §3
The subject of assay [4] is P19 embryonal carcinoma cells. To be noted: P19 embryonal carcinoma cells treated; cited from earlier work.
The mark [5] stands for this setting: Homo sapiens, NCI-H157, 96 hr exposure.
The mark [6] stands for this setting: Homo sapiens, NCI-H82, 96 hr exposure.
Setting [7] is: 10 uM, 24 hr, inc = increased, dec = decrease, N/C = no change.

On to `c1ccc(-c2ccccc2CNCCCNCCCNCCCNCc2ccccc2-c2ccccc2)cc1` [39-TDW-3], for which the values for the IC50 (in the assay with A549 cells; in assay [1] (setting [5]); in assay [2] (setting [6])) were 1 to 10 µM, 0.53 to 2.7 µM and 0.53 to 2.7 µM, respectively.

In the case of `CCNCCCNCCCNCCCNCc1ccccc1-c1ccccc1` [39-TDW-20c], the values for the IC50 (in the assay on A549 cells; in assay [1] (setting [5]); in assay [2] (setting [6])) were above 10 µM, 2.76 to 5.52 µM and 2.76 to 5.52 µM, respectively.

`CC(C)(C)CCNCCCNCCCNCCCNCC(F)(F)F` [40-TDW-19]: the IC50 in assay [1] (setting [5]) was 5.3 to 26.5 µM; in assay [2] (setting [6]), 5 to 10 µM.

For `CCNCCCNCCCNCCCNCCCCc1cc2cccc3ccc4cccc1c4c32` [40-TDW-23], the IC50 in assay [1] (96 hr exposure) and in assay [2] (96 hr exposure) was 10 to 50 µM throughout.

Regarding `CCSCCNCCCNCCCNCCCNCCSCC` [49-TDW-15], the IC50 was 0.5 to 1 µM in assay [1] (96 hr exposure) and 10 to 50 µM in assay [2] (96 hr exposure).

Consider `CCCCNCCCNCCCNCCCNCCCC` [ZQW-14c], for which the “Polyamine Level” value (in assay [3] (setting [7]); with H82 cells (10 uM)) was “slowly dec” each time.

For `CCCCNCCCNCCCNCCCN` [ZQW-16c], the entries for the “Polyamine Level” value (in assay [3] (setting [7]); in the assay on H82 cells (0-10 uM); in the assay on H82 cells (10 uM)) were “slowly inc”, “slight inc” and “dec ~50%”, respectively.

For the compound `CCCCNCCCNCCCNCCCNCC` [ZQW-19], the “Polyamine Level” value in assay [3] (1 uM, 24 hr) is listed as “N/C”; in assay [3] (setting [7]), “dec ~50%”; in the assay on H82 cells (0-10 uM) it was “slow dec”; in the assay on H82 cells (10 uM) it was “dec ~50%”.

On to `CCNCCCN(CCCN)CCCCCCCNCCCN` [ZQW-27-9], for which the “Polyamine Level” value in assay [3] (setting [7]) is listed as “N/C”; in the assay with H82 cells (10 uM) it was “dec”.

In the case of `CCNCCCN(CCCN)CCCCCCCNCCCNCC1CCCCCC1` [ZQW-27-11C], the “Polyamine Level” value in assay [3] (10 uM, 96 hr) was “N/C”; with H82 cells (10 uM) it was “dec ~50%”.

For `C=C(C)NCCCNCCCNCCCN` [ZQW-35-7c], the “Polyamine Level” value in assay [3] (5 uM, 24 hr) is on record as “slight dec”; in assay [3] (setting [7]), “dec”; in the assay on H82 cells (10 uM), “N/C”. The compound further had an IC50 in assay [1] (setting [5]) above 10 µM.

Turning to `C=C(C)NCCCNCCCNCCCNC(=C)C` [ZQW-35-8], the “Polyamine Level” value in assay [3] (setting [7]) is given as “N/C”; in the assay with H82 cells (10 uM), “N/C, slight”. The same compound had an IC50 in assay [1] (setting [5]) above 10 µM.

Turning to `C=C(C)NCCCNCCCNCCCNCC` [ZQW-35-8c], the “Polyamine Level” value is on record as “dec” in assay [3] (setting [7]) and “N/C, slight” with H82 cells (10 uM). Further, in assay [3] (spermidine and spermine, 10 uM, 24 hr), the “Polyamine Level, spd, spm” value was 1 g dec. Also, the IC50 in assay [1] (setting [5]) lay within 1 to 10 µM.

Turning to `CC1(C)C2CCC(CNCCCNCCCNCCCNCC3CCC4CC3C4(C)C)C1C2` (stereo not shown) [ZQW-35], the “Polyamine Level” value in assay [3] (4 uM, 24 hr) was “N/C”. Besides, the concentration for half-maximal inhibition (IC50) was 1 to 10 µM in assay [1] (setting [5]) and below 1 µM in assay [2] (setting [6]).

With `CC1(C)C2CCC(CNCCCNCCCNCCCN)C1C2` (stereo not shown) [ZQW-35c], the IC50 in assay [1] (setting [5]) and in assay [2] (setting [6]) was 1 to 10 µM in each case.

On to `CCNCCCNCCCNCCCNCC1CCC2CC1C2(C)C` (stereo not shown) [ZQW-36], for which the “Polyamine Level” value in assay [3] (setting [7]) is “slight dec”. Moreover, the “Polyamine Level, Spm” value in assay [3] (spermine (Spm), 10 uM, 24 hr) is given as “inc”. The half-inhibitory concentration (IC50) in assay [1] (setting [5]) and in assay [2] (setting [6]) was 1 to 10 µM in each case.

`C=C(CNCCCNCC)CNCCCNCC` [ZQW-44]: the “Polyamine Level” value in assay [3] (setting [7]) is recorded as “N/C”; with H82 cells (50 uM) it was “inc”. Besides, the IC50 in assay [1] (setting [5]) is above 13 µM.

Regarding `C=C(CNCC)CNCCCNCCCNCC` [ZQW-46], the “Polyamine Level” value is recorded as “N/C” in assay [3] (setting [7]) and “dec” in the assay with H82 cells (5-uM). Besides, 13 µM corresponded to half-maximal inhibition in assay [1] (setting [5]) (IC50).

Consider `N[C@@H]1C[C@H]1c1ccccc1` [tranylcypromine, (1R,2S)-2-phenylcyclopropan-1-amine], for which, in assay [4], the “effect on transcription of Egr1 and Oct4 genes” value is “transcriptional de-repression of the Egr1 and Oct4 genes”.
